From US20120021044A1, “Novel Cationic Lipid, A Preparation Method of the Same and A Delivery System Comprising the Same” (SNU R&DB FOUNDATION, priority 2007, published 2012)

Test system: Bcl2 transcript in SiHa cells
Test: Bcl2 transcript expression by RT-PCR after delivery of Bcl2 antisense oligonucleotide into SiHa cells
Format: cell-based, human
Conditions: Bcl2 antisense oligonucleotide 100 nM, 24 hours, FIG. 8
Experimental: On the day prior to the experiment, SiHa cells were seeded on 24-well plates at a density of 8×10^4 cells/well. […] The antisense oligonucleotide to induce the inhibition of expression of the Bcl2 gene (Genbank accession number: […] These materials were slowly pipetted, mixed and allowed to stand at room temperature for 20 min, thus resulting in formation of complexes. The thus-prepared complexes were added to the well plates, followed by cell culture in a CO2 incubator at 37° C. for 24 hours. After 24 hours, total RNA was isolated from the cultured cells using a Trizol reagent (Invitrogen, Carlsbad, Calif., USA) and then reverse-transcribed into cDNA using AccuPower RT PreMix (Bioneer, Daejeon, Korea). […] An expression level of the Bcl2 transcript was assayed by determining quantitative changes of the gene expression through normalization of a band density of the Bcl2-specific PCR product against a band density occurring by amplification of the GAPDH (glyceraldehyde-3-phosphate dehydrogenase) gene.

antisense oligonucleotide-alone: Bcl2 antisense oligonucleotide 5'-TCT CCC AGC GTG CGC CAT-3' (Bioneer), given without delivery system (antisense TCTCCCAGCGTGCGCCAT; chemistry not given here)
amount of the Bcl2 transcript (RT-PCR, normalized against GAPDH): no changes in an amount of the Bcl2 transcript
